The record followed here is US12410220B2, “Modulation of mammalian cell lineage by synthetic immodulins” (priority 2021, dated 2025).

Marks after values point to notes of the source that are not given here. Square brackets hold non-standard residues; d marks the D form. Ends that are not written are not given here. Peptide text beside a SMILES is read from it.

Assay [1] is described as follows: Ferric iron-binding assay of biotinylated immodulin peptides. The following applies: N-terminally biotinylated peptide, 400 ng per well, 60 min room temperature; immX3AVD = 100. From the text:
N-terminally biotinylated versions of the peptides listed below were used in ferric iron-binding assays involving either an Alexa488-labeled streptavidin protocol (Binding Assay 1) or FITC-NTA assay (Binding Assay 2). Fluorescence was standardized to binding with immX3AVD control peptide (100) and the average of multiple experiments using both protocols is shown. P values are shown relative to the control immX3AVD peptide (**<0.05). D-amino acid residues are underlined in the sequences and the extension tripeptide of immX peptides is shown in bold font. Binding Assay 1 was done as follows: NTA coated 96-well plates (G-Biosciences, St. Louis, MO) were charged with ferric chloride and contacted with equimolar biotinylated peptide: streptavidin-A488 complex (400 ng peptide per well) for 60 min at room temperature, washed with phosphate-buffered saline (PBS) and read at 525 nm in a fluorescence counter. Binding Assay 2 was done as follows: Streptavidin coated 96-well plates (G-Biosciences, St. Louis, MO) were contacted with 400 ng peptide per well in PBS buffer for 60 minutes at room temperature, washed in PBS, then contacted with FITC-NTA (TRC, Toronto, Canada) complexed with equimolar ferric chloride (10× molar equivalent per well) for 60 min at room temperature, washed with PBS and read at 525 nm in a fluorescence counter.

In another assay the test system is THP1-Dual monocytes. Description: THP1-Dual differentiation assay, immX3 peptide plus helper or inhibitor molecule. Format: cell-based, human. Particulars: immX3 peptide (330 nM) in all samples plus helper at the concentration given; immX3 with buffer = 100.0. As to the method: Mammalian cell differentiation assays using THP1-Dual monocytes reporter cell line (Invivogen Inc, San Diego, CA) seeded at 2×10e5 cells per well in 96-well plates and cultured at 37 degrees C. in RPMI-1640 growth medium plus 10% fetal bovine serum and 1% penicillin/streptomycin, then treated for 24 hours with either 100 ng/ml Phorbol 12-myristate 13-acetate (PMA protocol; Cayman Chemical Company, Ann Arbor, MI) or a mixture of IL-4 (100 ng/ml), GM-CSF (100 ng/ml), TNF-alpha (20 ng/ml) and ionomycin (200 ng/ml) (Cytokine protocol; Peprotech, Rocky Hill, NJ). Peptide (330 nM) was then added, and incubation continued for an additional 24 hours. Culture supernatants were then assayed for CCL22. Plates with adherent cells were washed with PBS and assayed for immunoreactivity of surface markers such as CD169, Clec9a, Clec12a or MHCII using fuorescent tag- or biotin-labeled anti-human antibodies purchased from Miltenyi Biotec (Auburn, CA) and a relevant secondary detection reagent, or by fluorescence counts.
The THP1-Dual cell differentiation assay was carried out as described above in Example 2, using immX3 peptide (330 nM) in all samples plus the indicated helper or inhibitor molecule. AU=arbitrary ELISA units. **p<0.01.

Assay [2] has as its target T1, AA111-228 DNA-binding domain of RXR-alpha (RXRa-DBD) (Homo sapiens, UniProt P19793).
T1 construct: purchased Abcam, Cambridge, MA
T1 sequence (P19793 111-228): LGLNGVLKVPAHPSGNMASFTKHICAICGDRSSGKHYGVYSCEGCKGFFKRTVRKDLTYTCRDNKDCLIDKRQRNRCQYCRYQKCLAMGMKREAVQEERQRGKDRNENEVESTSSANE
Description: Experiment 4A binding to RXRa-DBD. Particulars: 1 ug/well RXRa-DBD; 800 ng/well SA488-labelled peptide, 60 min; background subtracted. As to the method:
Experiment 4A. Binding of immodulin peptides to AA111-228 DNA-binding domain of RXR-alpha (RXRa-DBD). 1 ug/well recombinant RXRa-DBD (Abcam, Cambridge, MA) was adsorbed to wells of a 96-well plate for 60 minutes at room temperature, then blocked with 200 uL 1% bovine serum albumin (BSA) in PBS buffer overnight. Plate was washed and 800 ng/well Streptavidin-Alexa 488 conjugate (SA488)-labelled immX peptide was added. The plate was incubated for 60 min at room temperature, washed and counted in a standard fluorometer (excitation/emission 485/525 nm). Background (buffer alone) was subtracted.

The subject of assay [3] is HFF-1 human fibroblast cell line. Description: Collagen-1 ELISA in HFF-1 dermal fibroblasts. Particulars: peptide 2 uM, 72 hour incubation. Format: cell-based. Here is the method:
Immodulin peptides have potential untility in the field of cosmetics. HFF-1 human fibroblast cell line was obtained from the American Type Culture Collection (ATCC). Cells were grown in a T-75 flask in DMEM Medium containing 10% fetal bovine serum and penicillin-streptomycin at 37° C. in a humidified, 5% CO2 incubator. Cells (100 µl, 2,000 cells/well) were plated in a 96-well plate and incubated overnight at 37° C. in a humidified, 5% CO2 incubator. Next day, 10 µl/well of compounds were added (quadruplicate wells). After 72 hour incubation with the compound, supernatants were collected for Collagen-1 ELISA assay and cell viability was measured in a luminometer after the addition of 100 IL/well CellTiterGlo reagent (Promega Inc, Madison, WI) as recommended by the manufacturer. Collagen stimulating activity of immodulin peptides in HFF-1 dermal fibroblasts: Peptides were added to cells at 2 uM. COL1 immunoreactivity was measured in the supernatants of cultured cells by ELISA using a rabbit monoclonal anti-COL1 primary antibody (Abcam, Cambridge, MA). Control (buffer) value of immunoreactivity was set to 100.
Background: ELISA stands for enzyme-linked immunosorbent assay.

A short description of assay [4]: Experiment 4D binding to FITC-labelled heparin. The following applies: biotinylated peptide 1 ug/well; 1 ug FITC-labelled heparin, 90 minutes. Here is the method:
(§1) Streptavidin-coated 96-well plates (G-Biosciences, St. Louis, MO) were pre-treated with biotinylated peptides [see Example 1 for key] at 1 ug/well, at room temperature for 60 minutes. The plate was washed with PBS buffer and then 1 ug FITC-labelled heparin or hyaluronic acid in 100 uL PBS buffer was added per well (all tests in quadruplicate). Incubation proceeded for 90 minutes at room temperature, followed by two PBS washes. The plate was read in a standard laboratory fluorometer (488/525 nm exitation/[…]) and the counts normalized for immX3 peptide binding=100. Values statistically above background are shown in bold font. **p<0.05 versus immX3AVD.

A short description of assay [5]: Experiment 4D binding to FITC-labelled hyaluronic acid. Particulars: biotinylated peptide 1 ug/well; 1 ug FITC-labelled hyaluronic acid, 90 minutes. Here is the method: as §1

`CC(C)[C@H](NC(=O)[C@H](Cc1ccccc1)NC(=O)[C@H](Cc1c[nH]c2ccccc12)NC(=O)[C@H](CS)NC(=O)[C@H](Cc1ccccc1)NC(=O)CNC(=O)[C@H](CCCNC(=N)N)NC(=O)[C@H](CCCCN)NC(=O)[C@H](CCCNC(=N)N)NC(=O)CNC(=O)[C@H](CCCCN)NC(=O)[C@H](CO)NC(=O)[C@@H]1CCCN1C(=O)[C@H](CCCNC(=N)N)NC(=O)[C@H](CS)NC(=O)[C@H](CCC(N)=O)NC(=O)[C@H](CCCCN)NC(=O)[C@H](CCCCN)NC(=O)[C@H](CCCCN)NC(=O)[C@H](Cc1ccc(O)cc1)NC(=O)[C@H](Cc1ccccc1)NC(=O)CNC(=O)[C@H](CCCCN)NC(=O)[C@@H](N)CCCCN)C(=O)N[C@@H](CO)C(=O)O` [immX3FVS] (H-KKGFYKKKQCRPSKGRKRGFCWFVS-OH; N-terminus and C-terminus assumed): in assay [1], the “Ferric iron binding, fluorescence standardized to immX3AVD control peptide (100), Avg ± SD” value (from here on “Ferric iron binding … Avg ± SD”) is on record as 78.3 ± 6.5**.

On to Hyaluronic acid [reference compound], for which the “CD169 (AU)” value in the assay with THP1-Dual monocytes is 110.5 ± 10.2 AU.

On to `CSCC[C@H](NC(=O)[C@H](CO)NC(=O)[C@@H](NC(=O)[C@H](CCC(=O)O)NC(=O)[C@H](CS)NC(=O)[C@H](CCC(N)=O)NC(=O)[C@H](CCCNC(=N)N)NC(=O)[C@H](CO)NC(=O)[C@H](Cc1c[nH]cn1)NC(=O)[C@H](Cc1ccc(O)cc1)NC(=O)[C@H](Cc1ccccc1)NC(=O)CNC(=O)[C@H](CC(N)=O)NC(=O)[C@@H](N)CCCCN)[C@@H](C)O)C(=O)N[C@@H](CC(=O)O)C(=O)NCC(=O)N[C@@H](CCC(=O)O)C(=O)N[C@@H](C)C(=O)NCC(=O)N[C@@H](CC(C)C)C(=O)N[C@@H](CS)C(=O)N[C@@H](Cc1c[nH]c2ccccc12)C(=O)O` [imm1] (H-KNGFYHSRQCETSMDGEAGLCW-OH; N-terminus and C-terminus assumed), for which, in assay [1], the “Ferric iron binding … Avg ± SD” value is listed as 2.5 ± 1.6**. In addition, the “Fluorescence, binding to RXRa-DBD” value in assay [2] is 670±85. Besides, in assay [3], the “COL1 immunoreactivity in supernatants, control (buffer) set to 100” value is given as 98.

As to “KKGFYKKKQCRPSKGRKRGFCW[dA]VD (cysteine pairing not given here) [immX3dAVD]”, in assay [1], the “Ferric iron binding … Avg ± SD” value amounted to 108.1 ± 1.5.

Take Leptin: Growth factor class: the “CD169 (AU)” value in the assay with THP1-Dual monocytes was found to be 103.3 ± 11.6 AU.

In the case of “SLNPEWNETKGFYKKKQCRPSKGRKRGFCW[dA][dV][dD] (cysteine pairing not given here) [immX3K1dAdVdD]”, in assay [1], the “Ferric iron binding … Avg ± SD” value is 108.2 ± 6.6. The “Heparin binding, counts normalized for immX3 peptide binding=100” value (“Heparin binding, counts normalized” for short) in assay [4] is given as 56.0 ± 7.3**. Also, the “Hyaluronate binding, counts normalized for immX3 peptide binding=100” value (“Hyaluronate binding, counts normalized” for short) in assay [5] was 101.9 ± 16.4.

For the molecule Transferrin: Fe-binding protein, in the assay with THP1-Dual monocytes, the “CD169 (AU)” value is recorded as 126.8 ± 9.3** AU.

As to RNGNFHPKQCHPALDGQRGKCWAVD [immX4AVD], the “Ferric iron binding … Avg ± SD” value in assay [1] is 1.2 ± 1.3**. In addition, the “Heparin binding, counts normalized” value in assay [4] amounted to 7.3 ± 17.1. In assay [5], the “Hyaluronate binding, counts normalized” value stood at 61.1 ± 34.1.

On to “KKGFYKKKQCRPSKGRKRGFCW(dS)(dV)(dD) (KKGFYKKKQCRPSKGRKRGFCW[dS][dV][dD]; cysteine pairing not given here) [immX3dSdVdD]”, for which, in assay [1], the “Ferric iron binding … Avg ± SD” value was 133.6±.

In the case of RKGFYKRKQCKPSRGRKRGICWAVD [immX5AVD], in assay [1], the “Ferric iron binding … Avg ± SD” value was determined as 88.1 ± 14.2. Besides, the “Heparin binding, counts normalized” value in assay [4] is given as 68.7 ± 26.2. Further, the “Hyaluronate binding, counts normalized” value in assay [5] amounted to 113.9 ± 15.7.

Consider “GM-CSF: granulocyte-macrophage colony-stimulating factor; growth factor class”, for which the “CD169 (AU)” value with THP1-Dual monocytes is 147.0 ± 15.3** AU.

In the case of “KKGFYKKKQCRPSKGRKRGFCW[dA][dV][dD] (cysteine pairing not given here) [immX3dAdVdD]”, in assay [1], the “Ferric iron binding … Avg ± SD” value came to 102.4 ± 9.1. In assay [4], the “Heparin binding, counts normalized” value is 55.5 ± 5.7**. Further, in assay [5], the “Hyaluronate binding, counts normalized” value is 104.2 ± 14.7.

For `CSCC[C@H](NC(=O)[C@H](CCCCN)NC(=O)[C@H](CS)NC(=O)[C@H](CCC(N)=O)NC(=O)[C@H](CCCCN)NC(=O)[C@H](CC(C)C)NC(=O)[C@H](CC(N)=O)NC(=O)[C@H](Cc1ccc(O)cc1)NC(=O)[C@H](CC(C)C)NC(=O)CNC(=O)[C@H](Cc1c[nH]cn1)NC(=O)[C@@H](N)CCCCN)C(=O)N[C@@H](CO)C(=O)N[C@@H](CC(C)C)C(=O)N[C@@H](CC(N)=O)C(=O)NCC(=O)N[C@@H](CCC(N)=O)C(=O)N[C@@H](CCCNC(=N)N)C(=O)NCC(=O)N[C@@H](CCC(=O)O)C(=O)N[C@@H](CS)C(=O)N[C@@H](Cc1c[nH]c2ccccc12)C(=O)O` [imm2], the “Ferric iron binding … Avg ± SD” value in assay [1] is 1.6 ± 0.8**. The “Fluorescence, binding to RXRa-DBD” value in assay [2] is 2±38. The “Heparin binding, counts normalized” value in assay [4] stood at 27.4 ± 22.9. In addition, the “Hyaluronate binding, counts normalized” value in assay [5] was 3.1 ± 9.8. The “COL1 immunoreactivity in supernatants, control (buffer) set to 100” value in assay [3] stood at 109.

B1: CSF1: colony stimulating factor 1; growth factor class (protein, UniProt P09603 33-554, looked up)
Macrophage colony-stimulating …: EEVSEYCSHMIGSGHLQSLQRLIDSQMETSCQITFEFVDQEQLKDPVCYLKKAFLLVQDIMEDTMRFRDNTPNAIAIVQLQELSLRLKSCFTKDYEEHDKACVRTFYETPLQLLEKVKNVFNETKNLLDKDWNIFSKNCNNSFAECSSQDVVTKPDCNCLYPKAIPSSDPASVSPHQPLAPSMAPVAGLTWEDSEGTEGSSLLPGEQPLHTVDPGSAKQRPPRSTCQSFEPPETPVVKDSTIGGSPQPRPSVGAFNPGMEDILDSAMGTNWVPEEASGEASEIPVPQGTELSPSRPGGGSMQTEPARPSNFLSASSPLPASAKGQQPADVTGTALPRVGPVRPTGQDWNHTPQKTDHPSALLRDPPEPGSPRISSLRPQGLSNPSTLSAQPQLSRSHSSGSVLPLGELEGRRSTRDRRSPAEPEGGPASEGAARPLPRFNSVPLTDTGHERQSEGSFSPQLQESVFHLLVPSVILVLLAVGGLLFYRWRRRSHQEPQRADSPLEQPEGSPLTQDDRQVELPV
For the molecule B1, in the assay on THP1-Dual monocytes, the “CD169 (AU)” value turned out to be 108.0 ± 32.3 AU.
